One compound from article PMC4633953, “FR171456 is a specific inhibitor of mammalian NSDHL and yeast Erg26p” (Nature Communications, 2015) can be followed below.

The subject of one assay is Erg26p Arg315His. The experiment in a line: In vitro microsomal Erg26p activity assay, mutant. Type of assay: biochemical, S. cerevisiae. The conditions noted are these: microsome extracts. From the text:
(§1) Thus many of the FR171456 resistance mutations were mapped close to the NAD^+ or the substrate-binding site. The presence of three active conservative mutations Arg39Lys, […], and Arg315His in proximity to NAD^+ and substrate-binding site are consistent with FR171456 binding the substrate-binding pocket thus inhibiting the enzymatic activity. To address this more directly, we tested microsome extracts from the erg26Δ haploid yeast strains expressing the Erg26p wild type, Arg39Lys, Arg307His and Arg315His mutants in increasing doses of FR171456 to assess Erg26p mutant activity (Fig. 3b). Whilst Arg39Lys and Arg307His shift the I50 2-fold, Arg315His confers a 20-fold shift in I50. This highlights the importance of the interaction between Arg315 and the carboxyl group of the substrate/inhibitor as one of the most critical in the Erg26p active site (Fig. 3c).
(§2) Wild-type yeast (FL200) microsomes were prepared as follows.

The subject of another assay is Erg26p Arg307His. The experiment in a line: In vitro microsomal Erg26p activity assay, mutant. Type of assay: biochemical, S. cerevisiae. The conditions noted are these: microsome extracts.
Source text: as §1, §2

A further assay relates to Erg26p Arg39Lys. The experiment in a line: In vitro microsomal Erg26p activity assay, mutant. The format is biochemical, S. cerevisiae. The conditions noted are these: microsome extracts.
Source text: as §1, §2

Assay [1] has as its system panel of 24 receptors/enzymes. The experiment in a line: Pharmacological profiling against a panel of 24 receptors/enzymes. The format is binding.
The test system of assay [2] is Scedosporium apiospermum NF4908. The experiment in a line: Antifungal MIC. Type of assay: cell-based.
The subject of another assay is Candida glabrata NF2905. As to the kind of experiment: Antifungal MIC. Type of assay: cell-based. The conditions noted are these: Nakaseomyces glabratus.
The test system of another assay is 503 cancer cell lines. As to the kind of experiment: Compound activity profile against 503 cancer cell lines (72 h, Cell TiterGlo). Type of assay: cell-based. The conditions noted are these: sensitive = Amax <50% and IC50 <5 μM. Here is the method:
Supplementary figure 1. […] A plot […]
of normalized maximal inhibition (Y axis) versus the inflection point (X Axis) of a standard dose-response curve for increasing concentrations of FR171456 incubated with 503 mammalian cell lines in culture for 72h (each symbol), as determined by Cell TiterGlo (Promega)

Assay [3] deals with Aspergillus fumigatus NF4905. As to the kind of experiment: Antifungal MIC. Type of assay: cell-based.
For assay [4], the target named is T1, Erg26p (Saccharomyces cerevisiae, UniProt P53199).
T1 sequence (P53199 1-349): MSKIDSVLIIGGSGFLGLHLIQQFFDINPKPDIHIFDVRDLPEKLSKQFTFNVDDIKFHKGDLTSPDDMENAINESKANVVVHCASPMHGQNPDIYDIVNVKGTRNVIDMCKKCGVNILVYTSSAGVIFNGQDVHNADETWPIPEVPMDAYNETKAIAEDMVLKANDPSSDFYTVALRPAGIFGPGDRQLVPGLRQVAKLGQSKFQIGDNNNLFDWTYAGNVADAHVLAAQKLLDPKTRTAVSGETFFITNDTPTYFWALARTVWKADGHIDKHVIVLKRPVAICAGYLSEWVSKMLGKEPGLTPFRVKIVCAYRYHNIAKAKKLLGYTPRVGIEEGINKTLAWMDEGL
As to the kind of experiment: In vitro microsomal Erg26p activity assay (GC-MS).
Procedure: (§3) To test this hypothesis an in vitro microsomal Erg26p activity assay[30] was used. Erg26p activity was directly assessed in the presence of increasing concentrations of FR171456 (10 nM–0.1 mM) in the presence of 150 μM carboxysterol substrate (Fig. 1c) and the cofactor NAD^+ (0.5 mM) followed by GC-MS detection of the product 4α-methyl-cholest-8,24-dien-3-one.
(§4) Wild-type yeast (FL200) microsomes were prepared as follows. Yeast cells were disrupted by glass bead homogenization (0.45-mm diameter) in 100 mM phosphate buffer (pH 7.5) containing 1.5 mM reduced glutathione and 30 mM nicotinamide for 8 min at 0 °C[44]. The cell extract was obtained by centrifugation at 10,000 × g for 20 min. Microsomes were then isolated by centrifuging the cell extract supernatant at 100,000 × g for 90 min. The resulting microsomal pellet was resuspended in 100 mM phosphate buffer (pH 7.5) containing 3 mM reduced glutathione and 20% glycerol (v/v) using an Elvehjem–Potter homogenizer. Yeast microsomes (1.2 mg of protein) were incubated in the presence of 4α-carboxy-4β-methyl-cholest-8,24-dien-3β-ol (50–300 mM) and NAD^+ (0.5 mM) for 35–45 min at 30 °C. After addition of coprostanone (2–6 μg) as internal standard, the reactions were extracted as described previously[12]. The extract was analysed by TLC on silica gel and eluted twice with CH2Cl2. The fraction migrating between a standard of 4-desmethyl-sterone (RF= 0.50) and 4,4-dimethyl-sterone (RF=0.70) was eluted and analysed using a GC-MS spectrometer (Agilent 5973 N).
(§5) In the case of inhibition assays, microsomes were incubated for 35–45 min at 30 °C in the presence of 4α-carboxy-4β-methyl-cholest-8,24-dien-3β-ol (50–300 mM) and a range of inhibitor concentration (0.01–100 μM) from which a dose–response curve was obtained allowing the corresponding I50 values to be determined.
(§6) The GC-MS spectrometer (Agilent 5973 N) was equipped with an ‘on column' injector and a capillary column (30 × 0.25 mm) coated with DB5 (H2 flow rate of 2 ml min^−1). The temperature program included a 30 °C min^−1 increase from 60 °C to 240 °C, and followed by a 2 °C/min increase from 240 °C to 280 °C. The areas of the GC peaks of coprostanone (tR=1.000) and of the produced 4α-methyl-cholest-8,24-dien-3-one (tR=1.139), corrected from endogenous component of the same tR (1.139) determined in the blank (boiled microsomes), allowed the rate of transformation of 4α-carboxy-4β-methyl-cholest-8,24-dien-3β-ol to be measured. Under these conditions, the estimated limit of detection of the 3βHSD/D activity was 0.1 nmol h^−1 mg^−1.

Assay [5] has as its system Candida tropicalis NF2903. The experiment in a line: Antifungal MIC. Type of assay: cell-based.
Assay [6] deals with ERG26 heterozygous strain (erg26Δ/ERG26). As to the kind of experiment: Haploinsufficiency profiling (HIP). Type of assay: cell-based, S. cerevisiae. The conditions noted are these: FR171456 at IC30 (4 μM). Here is the method: The HIP assay was performed in 24-well plates (Greiner 662102), with 1.6 ml per well YPD. Experimental compounds were tested at n=2 within the same plate at or close to their IC30 concentration. Each plate contained two no drug controls, one positive control (Benomyl), 10 experimental compounds in duplicates and one contamination control that received no cells. A standard experiment was 4 plates per 40 experimental compounds processed robotically without human intervention. YPD per compound filled wells were inoculated with ∼250 yeast cells per strain (100 μl of a 1.5-OD600 per ml culture) from an overnight log phase preculture to start the experiment (Supplementary Fig. 2). The plates were pipetted with a standard 96 pipettor head by providing tip boxes preconfigured with a special tip pattern. Plates were incubated for 16 h in a robotic shaking incubator at 30 °C/550 r.p.m. allowing for ∼5 doublings. ∼250 yeast cells per strain (120 μl of a 1.2-OD600 per ml culture) were subsequently transferred into a preconfigured 24-well plate that was stored in a robotic plate reservoir at 4 °C until 30 min prior to its use where it was prewarmed to 30 °C. Once inoculated the new plate was incubated at 30 °C/550 r.p.m. to allow the next five yeast generations (generation 6–10) and the plate containing the first five doubling cultures was stored at 4 °C. […]

Assay [7] deals with T1, Erg26p. The experiment in a line: biochemical.
Procedure: as §3, §4, §5, §6

Where “and” joins values, the source holds several entries; their conditions need not be identical. Identical values can stand only once. Entries after “also recorded” stand apart in the source; their conditions may differ.

`C=C(CCC(C)C1CCC2C1(C)CC(O)C13CC14C(=O)CC(O)C(C)(C(=O)O)C4C(=O)CC23O)C(C)C` [FR171456, (1R,2aR,3R,5aR,5bS,7aR,8S,9S,11aS,12aR)-1,5b,9-trihydroxy-2a,8-dimethyl-3-((R)-6-methyl-5-methyleneheptan-2-yl)-7,11-dioxohexadecahydrocyclopenta[a]cyclopropa[e]-phenanthrene-8-carboxylic acid]: the “shift in I50 versus wild type” value in the assay with Erg26p Arg315His was determined as 20 fold; with Erg26p Arg307His, 2 fold; with Erg26p Arg39Lys it was 2 fold. In addition, the “specificity in receptor/enzyme panel” value in [1] is on record as “only one target with significant binding”. For the same compound, the MIC was 64 µg/mL and 144 µM in [2]; 16 µg/mL and 36 µM with Candida glabrata NF2905; 16 µg/mL and 36 µM in assay [3]; 72 µM and 32 µg/mL in [5]. Moreover, in the assay on 503 cancer cell lines, the “anti-proliferative activity across cell line panel” value is given as “not anti-proliferative; also recorded: unaffected; also recorded: only five cell lines were sensitive”. In addition, on Erg26p [4], the Ki was determined as 1350 ± 300 nM. In addition, on Erg26p [4] (for the carboxysterol substrate), the I50/Km ratio was ~4 × 10^−3. In assay [6], the “strain sensitivity in HIP profile” value is “most significant hypersensitivity”. For the same compound, the IC50 on Erg26p [7] stood at 2200 ± 500 nM.
